Results taken from patent US8207128B2, “Polypeptide inhibiting transmigration of leukocytes or growth and/or metastasis of cancer cells, and fusion protein thereof” (Supadelixir Inc., priority 2005, dated 2012).

Legend:
[1] = system: B16-F10-Luc-G5 cells (mouse melanoma cell line); test: In vivo transmigration of cancer cells, B16-F10-Luc-G5 injected into tail veins, lung and liver nodules; conditions: nude mice; 100 μg i.p. at 2-day intervals for 15 days; control peptide SEQ ID NO: 27; FIG. 17
Method: B16-F10-Luc-G5 cells (mouse melanoma cell line, Xenogen, U.S.A.) were injected into the tail veins of 10 nude mice (5 weeks old). The nude mice were divided into five mice for a control group and five mice for a test group. The control group was injected with a mixture of PBS with a peptide consisting of EEFDDAEEFDD (SEQ ID NO: 27) (control peptide) and the test group with a mixture of PBS with 100 μg of a peptide of SEQ ID NO: 26. The control peptide and the peptide of SEQ ID NO: 26 were intraperitoneally administered to the control group and the test group, respectively, at 2-day intervals for 15 days. Then, the nude mice were dissected and the lungs and livers were excised from the nude mice. Tumor nodules were counted.

RA mice = test: Migration of T cells, B cells and myeloid cells into the joint spaces of RA mice, synovial fluid flow cytometry; format: in vivo; conditions: dosing as in Experimental Example 3, similar to MTX-treated group, FIG. 7
Method: The polypeptide of the present invention, a saline solution, or MTX was administered to RA mice in the same manner as in EXPERIMENTAL EXAMPLE 3, and synovial fluid was obtained from the joint spaces of the mice of all the experimental groups. After the total cell number in the synovial fluid was counted, flow cytometry analysis was performed in the same manner as in EXPERIMENTAL EXAMPLE 3 to measure the number of T cells (CD3^+), B cells (CD19^+), and myeloid cells (CD11b^+, Gr-1^+) migrated to the joint spaces. The results are illustrated in FIG. 7.

mice with RA = test: Transmigration of lymphocytes and myeloid cells in the spleens of RA mice, flow cytometry; format: in vivo; conditions: spleen, i.p. at 2-day intervals for 4 weeks, similar to MTX-treated group, FIG. 6
Text: A polypeptide of SEQ ID NO: 26 (40 MOOD) was intraperitoneally administered to mice with RA, which had been induced in the same manner in EXPERIMENTAL EXAMPLE 2, at 2-day intervals for 4 weeks. Normal mice, saline-treated RA mice with intraperitoneal injection of a saline solution, and MTX-treated RA mice with intraperitoneal injection of a solution of MTX (100 □) in a saline solution (100 □) were used as control groups. Spleen tissues were harvested from the mice of all the experimental groups and washed with RPMI 1640 media, and single cells were isolated. After the total number of the single cells were counted, the single cells were stained with monoclonal antibodies (anti-CD3^+, CD4^+, CD8^+, CD11^+, CD19^+, CD69^+, Gr-1^+) capable of labeling T cells (CD3^+, CD4^+, CD8^+), activated T cells (CD3^+, CD69^+), B cells (CD19^+), and myeloid cells (CD11^+, Gr-1^+), and flow cytometry analysis was performed. The number of lymphocytes and myeloid cells migrated to […] was measured by determining the number of the T cells, the activated T cells, the B cells, and the myeloid cells per total cell number, and the results are illustrated in FIG. 6.

With “SEQ ID NO: 26: polypeptide derived from the mouse CD99, corresponds to the polypeptide of SEQ ID No: 14 derived from human CD99 (SGGISDSDLAD; listed as Mus musculus)” the “degree of spread of melanoma (lung and liver nodules) relative to control group” value [1] was “about 40%”, the “number of T cells, B cells and myeloid cells migrated to joint spaces, relative to saline-treated group” value (RA mice) was 50-70% and the “migrated cell numbers of T cells, activated T cells, B cells and myeloid cells as fraction of saline-treated group” value (mice with RA) was “about ⅔”.
